# According to PubChem BioAssay AID180 (DTP/NCI, 2004):
# Values joined by “and” are separate entries in the source; they are usually repeats but may differ in a detail not shown here. Equal values may be shown once.
# System: BDF1 mice, Adenocarcinoma 755 s.c., tumor weight T/C
# Experiment: NCI In Vivo Anticancer Drug Screen. Data for tumor model Adenocarcinoma 755 (subcutaneous) in B6D2F1 (BDF1) mice
# Conditions: endpoint: mean tumor weight, higher = larger tumour
# In short: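 In vivo antitumor screen on a transplantable tumor line. Result equals the measure in compound-treated animals divided by the same measure in vehicle controls.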
# [1] = dose: 25.0 mg/kg/injection, schedule: Q01DX011 (ip), vehicle: methylcellulose (MC)
# [2] = dose: 50.0 mg/kg/injection, schedule: Q01DX011 (ip), vehicle: methylcellulose (MC)
# [3] = dose: 100.0 mg/kg/injection, schedule: Q01DX011 (ip), vehicle: methylcellulose (MC)
# [4] = dose: 50.0 mg/kg/injection, schedule: Q01DX011 (ip), vehicle: carboxymethylcellulose (CMC)
# [5] = dose: 100.0 mg/kg/injection, schedule: Q01DX011 (ip), vehicle: carboxymethylcellulose (CMC)
# [6] = dose: 200.0 mg/kg/injection, schedule: Q01DX011 (ip), vehicle: carboxymethylcellulose (CMC)
# [7] = dose: 45.0 mg/kg/injection, schedule: Q01DX011 (ip), vehicle: methylcellulose (MC)
smiles,measurement,setting,value
Nc1ncnc2c1ncn2CCO,T/C,[1],52 % of control
same,T/C,[2],76 % of control
same,T/C,[3],67 % of control
CCCCn1cnc2c(SCCc3ccccc3)nc(N)nc21,T/C,[2],37 % of control
same,T/C,[3],42 % of control
same,T/C,"dose: 200.0 mg/kg/injection, schedule: Q01DX011 (ip), vehicle: methylcellulose (MC)",26 % of control
Nc1nc(N)c(N)c(N)n1,T/C,"dose: 50.0 mg/kg/injection, schedule: Q01DX011 (ip), vehicle: saline",82 % of control
same,T/C,"dose: 200.0 mg/kg/injection, schedule: Q01DX011 (ip), vehicle: saline",92 % of control
same,T/C,"dose: 400.0 mg/kg/injection, schedule: Q01DX011 (ip), vehicle: saline",90 % of control
CCCCOP(=O)(N1CC1C)N1CC1C (stereo not drawn),T/C,"dose: 2.0 mg/kg/injection, schedule: Q01DX011 (ip), vehicle: saline",92 % of control and 96 % of control and 114 % of control
same,T/C,"dose: 32.0 mg/kg/injection, schedule: Q01DX011 (ip), vehicle: saline",25 % of control
CN(C)N=Nc1ccc(-c2ccc(N=NN(C)C)cc2)cc1,T/C,"dose: 17.5 mg/kg/injection, schedule: Q01DX011 (ip), vehicle: other",92 % of control
same,T/C,"dose: 31.2 mg/kg/injection, schedule: Q01DX011 (ip), vehicle: other",56 % of control
same,T/C,"dose: 35.0 mg/kg/injection, schedule: Q01DX011 (ip), vehicle: other",72 % of control
same,T/C,"dose: 50.0 mg/kg/injection, schedule: Q01DX011 (ip), vehicle: water",70 % of control
same,T/C,"dose: 62.5 mg/kg/injection, schedule: Q01DX011 (ip), vehicle: other",46 % of control
same,T/C,"dose: 70.0 mg/kg/injection, schedule: Q01DX011 (ip), vehicle: other",75 % of control
same,T/C,"dose: 100.0 mg/kg/injection, schedule: Q01DX011 (ip), vehicle: water",39 % of control
same,T/C,"dose: 125.0 mg/kg/injection, schedule: Q01DX011 (ip), vehicle: other",32 % of control
same,T/C,"dose: 140.0 mg/kg/injection, schedule: Q01DX011 (ip), vehicle: other",40 % of control
same,T/C,"dose: 150.0 mg/kg/injection, schedule: Q01DX011 (ip), vehicle: water",46 % of control
same,T/C,"dose: 200.0 mg/kg/injection, schedule: Q01DX011 (ip), vehicle: water",61 % of control
O=C(O)c1[nH]c(=O)[nH]c(=O)c1F,T/C,"dose: 1.5 mg/kg/injection, schedule: Q01DX011 (ip), vehicle: other",53 % of control
same,T/C,"dose: 3.0 mg/kg/injection, schedule: Q01DX011 (ip), vehicle: other",79 % of control
same,T/C,"dose: 6.0 mg/kg/injection, schedule: Q01DX011 (ip), vehicle: other",37 % of control
same,T/C,"dose: 12.0 mg/kg/injection, schedule: Q01DX011 (ip), vehicle: other",10 % of control
COc1cc(C(=O)[O][Hg][CH2]C2COC([CH2][Hg][O]C(=O)c3cc(OC)c(OC)c(OC)c3)CO2)cc(OC)c1OC (stereo not drawn),T/C,"dose: 25.0 mg/kg/injection, schedule: Q01DX011 (ip), vehicle: carboxymethylcellulose (CMC)",61 % of control
CCCCCCCCOc1nc(N)nc2n[nH]nc12,T/C,[4],112 % of control
same,T/C,[5],69 % of control
same,T/C,[6],57 % of control
CCCCN(C)N=Nc1ccc(C(N)=O)cc1,T/C,"dose: 16.0 mg/kg/injection, schedule: Q01DX011 (ip), vehicle: carboxymethylcellulose (CMC)",14 % of control
same,T/C,"dose: 31.0 mg/kg/injection, schedule: Q01DX011 (ip), vehicle: carboxymethylcellulose (CMC)",27 % of control
same,T/C,[4],25 % of control
same,T/C,"dose: 75.0 mg/kg/injection, schedule: Q01DX011 (ip), vehicle: carboxymethylcellulose (CMC)",14 % of control
Cc1nc(C(N)=O)nc2ccccc12,T/C,"dose: 31.25 mg/kg/injection, schedule: Q01DX011 (ip), vehicle: methylcellulose (MC)",102 % of control
same,T/C,[4],99 % of control
same,T/C,[5],80 % of control
same,T/C,[6],58 % of control
same,T/C,"dose: 400.0 mg/kg/injection, schedule: Q01DX011 (ip), vehicle: carboxymethylcellulose (CMC)",32 % of control
Fc1ccccc1CSc1ncnc2c1ncn2C1CCCO1 (stereo not drawn),T/C,"dose: 3.4 mg/kg/injection, schedule: Q01DX011 (ip), vehicle: methylcellulose (MC)",82 % of control
same,T/C,"dose: 6.75 mg/kg/injection, schedule: Q01DX011 (ip), vehicle: methylcellulose (MC)",96 % of control
same,T/C,"dose: 12.5 mg/kg/injection, schedule: Q01DX011 (ip), vehicle: methylcellulose (MC)",26 % of control
same,T/C,[1],1 % of control and 15 % of control
same,T/C,[2],1 % of control
Cc1cnc(SCc2ccccc2Cl)nc1SCc1ccccc1Cl,T/C,"dose: 31.0 mg/kg/injection, schedule: Q01DX011 (ip), vehicle: methylcellulose (MC)",81 % of control
same,T/C,"dose: 62.0 mg/kg/injection, schedule: Q01DX011 (ip), vehicle: methylcellulose (MC)",65 % of control
CN(C)CCCN1c2ccccc2Sc2ccc(Cl)cc21,T/C,"dose: 11.25 mg/kg/injection, schedule: Q01DX011 (ip), vehicle: methylcellulose (MC)",44 % of control
same,T/C,"dose: 11.25 mg/kg/injection, schedule: Q01DX011 (ip), vehicle: saline",59 % of control
same,T/C,"dose: 22.5 mg/kg/injection, schedule: Q01DX011 (ip), vehicle: methylcellulose (MC)",28 % of control
same,T/C,"dose: 22.5 mg/kg/injection, schedule: Q01DX011 (ip), vehicle: saline",47 % of control
same,T/C,[7],33 % of control
same,T/C,"dose: 45.0 mg/kg/injection, schedule: Q01DX011 (ip), vehicle: saline",38 % of control
same,T/C,"dose: 90.0 mg/kg/injection, schedule: Q01DX011 (ip), vehicle: methylcellulose (MC)",25 % of control
CN1C=NNc2ncnc(Cl)c21,T/C,"dose: 125.0 mg/kg/injection, schedule: Q01DX011 (ip), vehicle: carboxymethylcellulose (CMC)",166 % of control
same,T/C,"dose: 250.0 mg/kg/injection, schedule: Q01DX011 (ip), vehicle: carboxymethylcellulose (CMC)",161 % of control
CC(=O)[C@H]1CC[C@H]2[C@@H]3C[C@H](C)C4=CC(=O)CC[C@]4(C)[C@H]3[C@@H](O)C[C@]12C,T/C,"dose: 50.0 mg/kg/injection, schedule: Q01DX011 (sc), vehicle: steriod suspending solution",56 % of control and 63 % of control
same,T/C,"dose: 100.0 mg/kg/injection, schedule: Q01DX011 (sc), vehicle: steriod suspending solution",59 % of control and 60 % of control
same,T/C,"dose: 200.0 mg/kg/injection, schedule: Q01DX011 (sc), vehicle: steriod suspending solution",15 % of control and 34 % of control
Cc1cc2nc3c(=O)[nH]c(=O)nc-3n(CCO)c2cc1C,T/C,"dose: 800.0 mg/kg/injection, schedule: Q01DX011 (ip), vehicle: methylcellulose (MC)",98 % of control
same,T/C,"dose: 1000.0 mg/kg/injection, schedule: Q01DX011 (ip), vehicle: methylcellulose (MC)",95 % of control
COC1C(OC(=O)/C=C/C=C/C=C/C=C\C(=O)O)CCC2(CO2)C1C1(C)OC1CC=C(C)C (stereo not drawn),T/C,"dose: 10.0 mg/kg/injection, schedule: Q01DX011 (ip), vehicle: other",90 % of control
same,T/C,"dose: 20.0 mg/kg/injection, schedule: Q01DX011 (ip), vehicle: other",98 % of control
same,T/C,"dose: 40.0 mg/kg/injection, schedule: Q01DX011 (ip), vehicle: other",64 % of control
same,T/C,"dose: 80.0 mg/kg/injection, schedule: Q01DX011 (ip), vehicle: other",82 % of control
same,T/C,"dose: 160.0 mg/kg/injection, schedule: Q01DX011 (ip), vehicle: other",74 % of control
Cc1ccc(N=Nc2c(S(=O)(=O)O)cc3cc(NC(=O)Nc4ccc5c(O)c(N=Nc6ccc7cc(S(=O)(=O)O)ccc7c6)c(S(=O)(=O)O)cc5c4)ccc3c2O)cc1,T/C,[7],66 % of control
same,T/C,"dose: 65.0 mg/kg/injection, schedule: Q01DX011 (ip), vehicle: methylcellulose (MC)",42 % of control
same,T/C,"dose: 150.0 mg/kg/injection, schedule: Q01DX011 (ip), vehicle: methylcellulose (MC)",30 % of control
Nc1ncnc2c1ncn2C1CCCCC1,T/C,"dose: 34.0 mg/kg/injection, schedule: Q01DX011 (oral), vehicle: carboxymethylcellulose (CMC)",75 % of control
same,T/C,"dose: 68.0 mg/kg/injection, schedule: Q01DX011 (oral), vehicle: carboxymethylcellulose (CMC)",120 % of control
same,T/C,"dose: 136.0 mg/kg/injection, schedule: Q01DX011 (oral), vehicle: carboxymethylcellulose (CMC)",78 % of control
same,T/C,"dose: 272.0 mg/kg/injection, schedule: Q01DX011 (oral), vehicle: carboxymethylcellulose (CMC)",106 % of control
NC(CCCC(N)C(=O)O)C(=O)O (stereo not drawn),T/C,"dose: 200.0 mg/kg/injection, schedule: Q01DX011 (ip), vehicle: other",75 % of control
same,T/C,"dose: 400.0 mg/kg/injection, schedule: Q01DX011 (ip), vehicle: other",77 % of control
same,T/C,"dose: 600.0 mg/kg/injection, schedule: Q01DX011 (ip), vehicle: other",93 % of control
COC1CC(O)C(COS(C)(=O)=O)O1 (stereo not drawn),T/C,"dose: 25.0 mg/kg/injection, schedule: Q01DX011 (ip), vehicle: saline",100 % of control
same,T/C,"dose: 75.0 mg/kg/injection, schedule: Q01DX011 (ip), vehicle: saline",114 % of control
same,T/C,"dose: 225.0 mg/kg/injection, schedule: Q01DX011 (ip), vehicle: saline",113 % of control
